Measurements from patent EP1756142B1, “PSEUDOPEPTIDES GROWTH HORMONE SECRETAGOGUES” (Mediolanum Farmaceutici S.p.A., priority 2004, dated 2008).

Columns and labels:
[1] = system: GH release; test: GH release in vivo after subcutaneous injection in neonatal rats
[2] = system: GH release; test: stimulation of GH release in vitro
[3] = system: human pituitary gland tissues; test: binding affinity to human pituitary gland tissues; settings: compared with Ghrelin, hexarelin, MK 0677 and JMV 1843

## CC(C)(N)C(=O)N[C@H](Cc1c[nH]c2ccccc12)C(=O)N[C@@H](C=NOCC(N)=O)Cc1c[nH]c2ccccc12 [(Ia), Aib-D-Trp-D-Trpψ[CH=N∼O]Gly-NH2]
[1]; in vivo
  stimulating the GH release in vivo: remarkably potent
[1]; neonatal rats, injected subcutaneously, compared with MK 0677 and hexarelin
  amount of growth hormone released: exceeded the amount released when the standard GH secretagogues MK 0677 and hexarelin were administered
[2]
  stimulating the GH release in vitro: remarkably potent
[3]
  binding affinity: comparable to that of the natural ligand Ghrelin and superior to the binding affinity of the synthetic GH secretagogues
